Test results from BindingDB's records for doi:10.1021/acs.jmedchem.1c00742 (H. Lee Moffitt Cancer Center and Research Institute, 2021).

Biological target: T1, B-cell CLL/lymphoma 9 protein (Homo sapiens, UniProt O00512)
T1 sequence (O00512 whole entry): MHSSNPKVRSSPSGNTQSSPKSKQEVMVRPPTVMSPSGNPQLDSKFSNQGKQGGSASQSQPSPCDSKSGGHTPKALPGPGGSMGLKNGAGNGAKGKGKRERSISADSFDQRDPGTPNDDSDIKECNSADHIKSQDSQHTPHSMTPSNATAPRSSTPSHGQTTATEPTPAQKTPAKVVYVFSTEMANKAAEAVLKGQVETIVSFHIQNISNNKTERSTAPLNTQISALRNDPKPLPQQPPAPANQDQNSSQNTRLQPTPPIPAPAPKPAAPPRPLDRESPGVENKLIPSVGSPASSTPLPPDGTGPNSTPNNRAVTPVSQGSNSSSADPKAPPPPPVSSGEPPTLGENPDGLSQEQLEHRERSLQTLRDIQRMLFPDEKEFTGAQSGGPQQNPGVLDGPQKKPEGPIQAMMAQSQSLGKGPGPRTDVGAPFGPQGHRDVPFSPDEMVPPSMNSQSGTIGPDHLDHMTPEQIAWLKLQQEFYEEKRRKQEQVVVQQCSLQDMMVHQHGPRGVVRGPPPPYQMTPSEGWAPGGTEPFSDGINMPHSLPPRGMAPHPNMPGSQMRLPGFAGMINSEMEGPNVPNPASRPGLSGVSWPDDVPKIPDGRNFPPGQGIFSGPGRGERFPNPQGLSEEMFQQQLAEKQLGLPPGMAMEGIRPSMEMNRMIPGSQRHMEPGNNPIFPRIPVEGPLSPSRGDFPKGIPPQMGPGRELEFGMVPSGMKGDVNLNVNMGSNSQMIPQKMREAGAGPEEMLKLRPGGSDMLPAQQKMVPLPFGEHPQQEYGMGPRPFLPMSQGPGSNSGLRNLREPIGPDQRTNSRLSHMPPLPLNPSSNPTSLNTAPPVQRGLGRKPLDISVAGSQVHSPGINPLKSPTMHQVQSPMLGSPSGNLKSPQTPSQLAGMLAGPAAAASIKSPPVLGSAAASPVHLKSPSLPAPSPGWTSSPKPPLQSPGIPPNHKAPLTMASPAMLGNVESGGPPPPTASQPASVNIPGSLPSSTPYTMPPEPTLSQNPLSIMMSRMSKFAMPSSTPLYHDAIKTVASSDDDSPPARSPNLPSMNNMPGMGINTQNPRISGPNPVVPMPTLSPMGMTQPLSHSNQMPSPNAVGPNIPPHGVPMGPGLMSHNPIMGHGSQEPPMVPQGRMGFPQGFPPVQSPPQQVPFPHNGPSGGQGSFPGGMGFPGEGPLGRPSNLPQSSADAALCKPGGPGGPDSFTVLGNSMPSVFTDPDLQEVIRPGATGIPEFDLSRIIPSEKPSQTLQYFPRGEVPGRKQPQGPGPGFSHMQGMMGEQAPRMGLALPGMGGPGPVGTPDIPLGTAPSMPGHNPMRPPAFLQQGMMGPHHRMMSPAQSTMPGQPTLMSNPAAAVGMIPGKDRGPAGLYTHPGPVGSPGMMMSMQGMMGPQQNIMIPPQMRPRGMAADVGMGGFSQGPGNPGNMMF
Assay: Competitive binding affinity to C-terminal 6-His-tagged beta-catenin (1 to 781 residues) (unknown origin) expressed in Escherichia coli BL21 (DE3)- N-terminal biotinylated human BCL9 (350 to 375 residues) assessed as apparent dissociation constant incubated for 2 hrs by AlphaScreen assay

Kd: 770 nM
SMILES: CC(C)(Oc1cccc(N2CCC[C@@H](C(=O)N(CCOCCOCCNC(=O)CCCC[C@@H]3SC[C@@H]4NC(=O)N[C@@H]43)Cc3ccc(-c4cn[nH]c4)cc3)C2)c1)C(=O)N1CCNCC1
